Consider 26 molecules from patent publication US11136313B2, “Compounds, compositions, and methods for modulating CFTR” (Proteostasis Therapeutics, Inc., priority 2015, dated 2021).

The target of this assay is T1, ΔF508-CFTR (Homo sapiens, UniProt P13569, DEL508-508).
T1 construct: Primary lung epithelial cells homozygous for the Cystic Fibrosis-causing ΔF508 mutation were differentiated for a minimum of 4 weeks; endogenous in cells; host or cells: primary lung epithelial cells (hBE) homozygous for ΔF508, differentiated at an air-liquid interface
T1 sequence (P13569 with tags, fused parts or gaps DEL508-508): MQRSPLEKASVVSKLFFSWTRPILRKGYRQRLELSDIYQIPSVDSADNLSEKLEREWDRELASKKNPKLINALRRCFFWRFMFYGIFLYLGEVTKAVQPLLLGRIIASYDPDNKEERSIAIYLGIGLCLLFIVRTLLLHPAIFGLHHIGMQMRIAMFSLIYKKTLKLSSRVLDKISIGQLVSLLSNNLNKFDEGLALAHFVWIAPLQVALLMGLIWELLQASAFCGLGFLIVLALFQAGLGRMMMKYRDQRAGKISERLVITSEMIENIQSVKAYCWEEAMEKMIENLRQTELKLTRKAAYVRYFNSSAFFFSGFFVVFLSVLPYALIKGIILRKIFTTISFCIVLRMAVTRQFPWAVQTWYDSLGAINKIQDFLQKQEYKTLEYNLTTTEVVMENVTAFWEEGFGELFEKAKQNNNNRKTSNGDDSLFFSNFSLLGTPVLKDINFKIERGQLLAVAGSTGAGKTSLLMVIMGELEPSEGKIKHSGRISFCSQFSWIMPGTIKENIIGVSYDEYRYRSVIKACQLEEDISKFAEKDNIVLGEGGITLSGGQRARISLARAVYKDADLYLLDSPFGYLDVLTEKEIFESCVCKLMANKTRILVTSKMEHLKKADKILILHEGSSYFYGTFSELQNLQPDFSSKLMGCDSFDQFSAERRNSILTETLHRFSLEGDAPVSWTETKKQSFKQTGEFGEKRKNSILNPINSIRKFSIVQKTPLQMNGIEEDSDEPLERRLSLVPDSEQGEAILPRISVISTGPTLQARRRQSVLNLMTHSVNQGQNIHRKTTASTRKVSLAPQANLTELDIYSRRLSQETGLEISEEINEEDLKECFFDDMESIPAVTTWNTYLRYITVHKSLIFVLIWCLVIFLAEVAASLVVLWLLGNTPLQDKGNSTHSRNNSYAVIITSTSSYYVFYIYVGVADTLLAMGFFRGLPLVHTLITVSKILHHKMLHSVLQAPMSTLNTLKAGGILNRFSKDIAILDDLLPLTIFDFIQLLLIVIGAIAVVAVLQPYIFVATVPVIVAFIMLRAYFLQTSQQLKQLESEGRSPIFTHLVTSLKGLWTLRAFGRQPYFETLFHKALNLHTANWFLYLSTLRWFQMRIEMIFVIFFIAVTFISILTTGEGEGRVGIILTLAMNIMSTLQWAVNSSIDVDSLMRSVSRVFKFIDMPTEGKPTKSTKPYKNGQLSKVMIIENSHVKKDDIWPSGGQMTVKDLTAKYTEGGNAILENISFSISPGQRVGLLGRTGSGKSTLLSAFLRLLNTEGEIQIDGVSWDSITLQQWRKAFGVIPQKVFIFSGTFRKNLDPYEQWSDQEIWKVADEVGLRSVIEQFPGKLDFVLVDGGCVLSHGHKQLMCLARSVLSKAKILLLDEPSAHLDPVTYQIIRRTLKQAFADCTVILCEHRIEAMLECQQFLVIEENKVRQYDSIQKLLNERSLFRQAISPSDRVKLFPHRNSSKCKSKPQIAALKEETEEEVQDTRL
Briefly: hBE equivalent current (Ieq) assay: AUC of equivalent chloride current after forskolin/VX-770 in primary lung epithelial cells homozygous for ΔF508. It counts as cell-based. The conditions noted are these: relative to CFTR amplifier (Compound A)+VX-809 (3 uM), compound at 10 uM and Compound A at 3 uM, 24 h treatment. How it is done:
ii. hBE Equivalent Current (Ieq) Assay
Primary lung epithelial cells homozygous for the Cystic Fibrosis-causing ΔF508 mutation were differentiated for a minimum of 4 weeks in an air-liquid interface on Costar 24 well HTS filter plates prior to the equivalent current (Ieq) measurements. Cells were apically mucus-washed for 30 minutes 24 h prior to treatment with compounds. The basolateral media was removed and replaced with media containing the compound of interest diluted to its final concentration from DMSO stocks. Treated cells were incubated at 37° C. and 5% CO2 for 24 hours. At the end of the treatment period, the media was changed to the Ieq experimental solution for 2 hours before the experiment and plates are maintained in a CO2-free incubator during this period. The plates containing the cells were then placed in pre-warmed heating blocks at 36° C.±0.5 for 15 minutes before measurements are taken. The transepithelial voltage (VT) and conductance (GT) were measured using a custom 24 channel current clamp (TECC-24) with 24 well electrode manifold. The Ieq assay measurements were made following additions with standardized time periods: • 1. The baseline VT and GT values were measured for approximately 20 minutes. • 2. Benzamil was added to block ENaC for 15 minutes. • 3. Forskolin plus VX-770 were added to maximally activate ΔF508-CFTR for 27 minutes. • 4. Bumetanide was added to inhibit the NaK2Cl cotransporter and shut-off secretion of chloride.
The activity data captured was the area under the curve (AUC) for the traces of the equivalent chloride current. The AUC was collected from the time of the forskolin/VX-770 addition until the inhibition by bumetanide addition. Correction in response to compound treatment was scored as the increase in the AUC for compound-treated samples over that of vehicle-treated samples.
(+ indicates activity<50% of an CFTR amplifier (Compound A)+VX-809 (3 uM) with compound at 10 uM and Compound A at 3 uM; ++ indicates activity>50% of CFTR amplifier+VX-809 (3 uM) with compound at 10 uM and Compound A at 3 uM.

As for `Cc1cc(C)c2nc(-c3oc4ccccc4c3C)c(C(=O)O)cc2c1` [Compound 105, 6,8-Dimethyl-2-(3-methyl-1-benzofuran-2-yl)quinoline-3-carboxylic Acid], the Activity entry was “+ (activity<50% of an CFTR amplifier (Compound A)+VX-809 (3 uM) with compound at 10 uM and Compound A at 3 uM)”.
As to `Cc1c(-c2cc(C(=O)O)c3cc(Br)cc(C)c3n2)oc2ccccc12` [Compound 21, 6-bromo-8-methyl-2-(3-methyl-1-benzofuran-2-yl)quinoline-4-carboxylic acid], the Activity result is “++ (activity>50% of CFTR amplifier+VX-809 (3 uM) with compound at 10 uM and Compound A at 3 uM)”.
To `Cc1c(-c2cc(C(=O)[O-])c3c(O[C@H]4CCC[C@@H](C)C4)ccc(C)c3n2)sc2ccccc12.[Na+]` [Compound 219, Sodium 8-Methyl-2-(3-methyl-1-benzothiophen-2-yl)-5-[[(1S,3R)-3-methylcyclohexyl]oxy]quinoline-4-carboxylic acid] belongs “++ (activity>50% of CFTR amplifier+VX-809 (3 uM) with compound at 10 uM and Compound A at 3 uM)”; to `CO[C@]1(C)C[C@@H](COc2ccc(C)c3nc(-c4sc5ccccc5c4C)cc(C(=O)[O-])c23)C1.[Na+]` [Compound 325], “++ (activity>50% of CFTR amplifier+VX-809 (3 uM) with compound at 10 uM and Compound A at 3 uM)”; to `Cc1c(-c2cc(C(=O)[O-])c3c(OC[C@H]4C[C@H]5CC[C@@H](C4)O5)ccc(C)c3n2)oc2ccccc12.[Na+]` [Compound 357], “++ (activity>50% of CFTR amplifier+VX-809 (3 uM) with compound at 10 uM and Compound A at 3 uM)”.
To `CCc1ccc(OCc2cccc([S+](C)[O-])c2)c2c(C(=O)O)cc(-c3oc4ccccc4c3C)nc12` (centres unmarked) [Compound 142, 8-Ethyl-5-[(3-methanesulfinylphenyl)methoxy]-2-(3-methyl-1-benzofuran-2-yl)quinoline-4-carboxylic Acid] belongs “++ (activity>50% of CFTR amplifier+VX-809 (3 uM) with compound at 10 uM and Compound A at 3 uM)”; to `Cc1c(-c2cc(C(=O)O)c3cc(C(F)(F)F)cc(C)c3n2)oc2ccccc12` [Compound 19, 8-Methyl-2-(3-methyl-1-benzofuran-2-yl)-6-(trifluoromethyl)quinoline-4-carboxylic acid], “++ (activity>50% of CFTR amplifier+VX-809 (3 uM) with compound at 10 uM and Compound A at 3 uM)”.
Regarding `Cc1c(-c2cc(C(=O)O)c3cc(Cl)cc(C)c3n2)sc2ccccc12` [Compound 104, 6-Chloro-8-methyl-2-(3-methyl-1-benzothiophen-2-yl)quinoline-4-carboxylic acid], the Activity entry is “++ (activity>50% of CFTR amplifier+VX-809 (3 uM) with compound at 10 uM and Compound A at 3 uM)”.
With `Cc1c(-c2cc(C(=O)O)c3cc(C#N)cc(C)c3n2)oc2ccccc12` [Compound 22, 6-Cyano-8-methyl-2-(3-methyl-1-benzofuran-2-yl)quinoline-4-carboxylic Acid], the Activity entry was “+ (activity<50% of an CFTR amplifier (Compound A)+VX-809 (3 uM) with compound at 10 uM and Compound A at 3 uM)”.
To `Cc1c(-c2cc(C(=O)O)c3c(OC(F)(F)F)ccc(C)c3n2)oc2ccccc12` [Compound 121, 8-Methyl-2-(3-methyl-1-benzofuran-2-yl)-5-(trifluoromethoxy)quinoline-4-carboxylic acid] belongs “+ (activity<50% of an CFTR amplifier (Compound A)+VX-809 (3 uM) with compound at 10 uM and Compound A at 3 uM)”; to `Cc1cc(C)c2nc(-c3cc4ccccc4o3)cc(C(=O)O)c2c1` [Compound 6, 2-(1-Benzofuran-2-yl)-6,8-dimethylquinoline-4-carboxylic acid], “+ (activity<50% of an CFTR amplifier (Compound A)+VX-809 (3 uM) with compound at 10 uM and Compound A at 3 uM)”.
Consider `CCc1cc(C)c2nc(-c3oc4ccccc4c3C)cc(C(=O)O)c2c1` [Compound 26, 6-Ethyl-8-methyl-2-(3-methyl-1-benzofuran-2-yl)quinoline-4-carboxylic Acid], for which the Activity result is “++ (activity>50% of CFTR amplifier+VX-809 (3 uM) with compound at 10 uM and Compound A at 3 uM)”.
With `Cc1c(-c2cc(C(=O)O)c3c(C)ccc(C)c3n2)oc2c(OCc3ccccc3)cccc12` [Compound 132, 2-[7-(Benzyloxy)-3-methyl-1-benzofuran-2-yl]-5,8-dimethylquinoline-4-carboxylic acid], the Activity result was “++ (activity>50% of CFTR amplifier+VX-809 (3 uM) with compound at 10 uM and Compound A at 3 uM)”.
For `CCc1ccc(O[C@@H]2CCC[C@@H](C)C2)c2c(C(=O)[O-])cc(-c3sc4ccccc4c3C)nc12.[Na+]` [Compound 217, Sodium 8-Ethyl-2-(3-methyl-1-benzothiophen-2-yl)-5-[[(1R,3R)-3-methylcyclohexyl]oxy]quinoline-4-carboxylate], the Activity entry is “++ (activity>50% of CFTR amplifier+VX-809 (3 uM) with compound at 10 uM and Compound A at 3 uM)”.
With `CCc1ccc(OCc2ccccc2)c2c(C(=O)O)cc(-c3c(C)c4ccccc4n3C)nc12` [Compound 147, 5-(Benzyloxy)-2-(1,3-dimethyl-1H-indol-2-yl)-8-ethylquinoline-4-carboxylic acid], the Activity result was “+ (activity<50% of an CFTR amplifier (Compound A)+VX-809 (3 uM) with compound at 10 uM and Compound A at 3 uM)”.
Consider `Cc1c(-c2cc(C(=O)[O-])c3c(O[C@@H](C)C4CCOCC4)ccc(C)c3n2)oc2ccccc12.[Na+]` [Compound 246, Sodium 5-((1S)-1-(tetrahydro-2H-pyran-4-yl)ethoxy)-8-methyl-2-(3-methyl-1-benzofuran-2-yl)quinoline-4-carboxylate], for which the Activity entry is “++ (activity>50% of CFTR amplifier+VX-809 (3 uM) with compound at 10 uM and Compound A at 3 uM)”.
To `Cc1ccc(O[C@@H](C)c2ccccc2)c2c(C(=O)[O-])cc(-c3cc4ccccn4n3)nc12.[Na+]` [Compound 209] belongs “+ (activity<50% of an CFTR amplifier (Compound A)+VX-809 (3 uM) with compound at 10 uM and Compound A at 3 uM)”; to `Cc1c(-c2cc(C(=O)[O-])c3c(O[C@@H](CO)c4ccccc4)ccc(C)c3n2)sc2ccccc12.[Na+]` [Compound 306], “++ (activity>50% of CFTR amplifier+VX-809 (3 uM) with compound at 10 uM and Compound A at 3 uM)”; to `Cc1c(-c2cc(C(=O)O)c3c(OC4CCCC(c5ccccc5)C4)ccc(C)c3n2)oc2ccccc12` (centres unmarked) [Compound 77, 8-Methyl-2-(3-methyl-1-benzofuran-2-yl)-5-[(3-phenylcyclohexyl)oxy]quinoline-4-carboxylic acid], “++ (activity>50% of CFTR amplifier+VX-809 (3 uM) with compound at 10 uM and Compound A at 3 uM)”.
With `Cc1c(-c2cc(C(=O)[O-])c3c(O[C@@H]4CCc5ccccc5C4)ccc(C)c3n2)oc2ccccc12.[Na+]` [Compound 249], the Activity result is “++ (activity>50% of CFTR amplifier+VX-809 (3 uM) with compound at 10 uM and Compound A at 3 uM)”.
For the molecule `Cc1c(-c2cc(C(=O)[O-])c3c(O[C@@H](C)C4CCOCC4)ccc(C)c3n2)sc2ccccc12.[Na+]` [Compound 329], the Activity entry is “++ (activity>50% of CFTR amplifier+VX-809 (3 uM) with compound at 10 uM and Compound A at 3 uM)”.
As to `CCc1ccc(OCc2ccc(S(C)(=O)=O)cc2)c2c(C(=O)O)cc(-c3oc4ccccc4c3C)nc12` [Compound 145, 8-Ethyl-5-[(4-methanesulfonylphenyl)methoxy]-2-(3-methyl-1-benzofuran-2-yl)quinoline-4-carboxylic acid], the Activity result was “++ (activity>50% of CFTR amplifier+VX-809 (3 uM) with compound at 10 uM and Compound A at 3 uM)”.
Consider `Cc1c(-c2cc(-c3noc(O)n3)c3c(OC(C)c4ccccc4)ccc(C)c3n2)oc2ccccc12` (centres unmarked) [Compound 361], for which the Activity entry is “++ (activity>50% of CFTR amplifier+VX-809 (3 uM) with compound at 10 uM and Compound A at 3 uM)”.
Take `Cc1cc(C)c2nc(-c3oc4ccccc4c3C)cc(C(=O)O)c2c1` [Compound 9, 6,8-dimethyl-2-(3-methyl-1-benzofuran-2-yl)quinoline-4-carboxylic acid]: the Activity entry is “++ (activity>50% of CFTR amplifier+VX-809 (3 uM) with compound at 10 uM and Compound A at 3 uM)”.
As to `CCc1ccc(COc2ccccc2)c2c(C(=O)O)cc(-c3csc4ccccc34)nc12` [Compound 180], the Activity entry is “++ (activity>50% of CFTR amplifier+VX-809 (3 uM) with compound at 10 uM and Compound A at 3 uM)”.
As to `Cc1c(-c2cc(C(=O)O)c3cc(OCCO)cc(C)c3n2)oc2ccccc12` [Compound 25, 6-(2-Hydroxyethoxy)-8-methyl-2-(3-methyl-1-benzofuran-2-yl)quinoline-4-carboxylic Acid], the Activity entry is “+ (activity<50% of an CFTR amplifier (Compound A)+VX-809 (3 uM) with compound at 10 uM and Compound A at 3 uM)”.
